{"source": "paper PMC2981508", "about": "(Science (New York, N.Y.), 2009)", "key": {"estrogen receptor": {"system": "estrogen receptor", "test": "in vitro fluorescence polarization binding assay"}, "AR": {"system": "AR", "assay_type": "cell-based", "conditions": "in vitro"}, "[1]": {"system": "DU145 human prostate cancer cells", "test": "Growth of AR-negative DU145 cells in vitro", "assay_type": "cell-based"}, "glucocorticoid receptor": {"target": "T1, glucocorticoid receptor (Homo sapiens, UniProt P04150)", "T1 sequence (P04150 1-777)": "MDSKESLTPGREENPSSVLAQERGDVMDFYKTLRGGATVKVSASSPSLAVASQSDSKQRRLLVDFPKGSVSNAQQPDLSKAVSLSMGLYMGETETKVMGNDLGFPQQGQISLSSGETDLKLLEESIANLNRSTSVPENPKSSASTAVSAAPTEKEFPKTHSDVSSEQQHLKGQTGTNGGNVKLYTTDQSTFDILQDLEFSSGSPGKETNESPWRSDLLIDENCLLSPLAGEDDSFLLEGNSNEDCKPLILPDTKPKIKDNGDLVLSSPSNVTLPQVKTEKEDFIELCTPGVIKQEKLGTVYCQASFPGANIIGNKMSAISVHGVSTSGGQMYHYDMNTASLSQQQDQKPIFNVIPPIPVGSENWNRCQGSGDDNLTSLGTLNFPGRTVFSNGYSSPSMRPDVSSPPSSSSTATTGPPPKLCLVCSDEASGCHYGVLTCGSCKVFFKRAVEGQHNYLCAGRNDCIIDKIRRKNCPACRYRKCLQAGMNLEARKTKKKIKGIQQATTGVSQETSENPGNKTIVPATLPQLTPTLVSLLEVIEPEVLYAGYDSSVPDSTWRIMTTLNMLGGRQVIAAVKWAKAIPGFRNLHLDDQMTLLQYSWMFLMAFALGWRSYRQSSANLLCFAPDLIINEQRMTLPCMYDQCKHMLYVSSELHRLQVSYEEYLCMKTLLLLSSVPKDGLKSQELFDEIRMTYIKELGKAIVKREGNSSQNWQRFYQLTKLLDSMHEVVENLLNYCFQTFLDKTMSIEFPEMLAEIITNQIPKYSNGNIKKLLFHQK", "test": "in vitro fluorescence polarization binding assay"}, "LNCaP/AR xenografts": {"system": "LNCaP/AR xenografts", "test": "Ki-67 staining of LNCaP/AR xenografts", "assay_type": "in vivo, mice", "conditions": "after 5 days of treatment"}, "[2]": {"target": "T2, mutant AR protein (W741C) (Homo sapiens, UniProt P10275, W742C)", "T2 sequence (P10275 1-920 W742C)": "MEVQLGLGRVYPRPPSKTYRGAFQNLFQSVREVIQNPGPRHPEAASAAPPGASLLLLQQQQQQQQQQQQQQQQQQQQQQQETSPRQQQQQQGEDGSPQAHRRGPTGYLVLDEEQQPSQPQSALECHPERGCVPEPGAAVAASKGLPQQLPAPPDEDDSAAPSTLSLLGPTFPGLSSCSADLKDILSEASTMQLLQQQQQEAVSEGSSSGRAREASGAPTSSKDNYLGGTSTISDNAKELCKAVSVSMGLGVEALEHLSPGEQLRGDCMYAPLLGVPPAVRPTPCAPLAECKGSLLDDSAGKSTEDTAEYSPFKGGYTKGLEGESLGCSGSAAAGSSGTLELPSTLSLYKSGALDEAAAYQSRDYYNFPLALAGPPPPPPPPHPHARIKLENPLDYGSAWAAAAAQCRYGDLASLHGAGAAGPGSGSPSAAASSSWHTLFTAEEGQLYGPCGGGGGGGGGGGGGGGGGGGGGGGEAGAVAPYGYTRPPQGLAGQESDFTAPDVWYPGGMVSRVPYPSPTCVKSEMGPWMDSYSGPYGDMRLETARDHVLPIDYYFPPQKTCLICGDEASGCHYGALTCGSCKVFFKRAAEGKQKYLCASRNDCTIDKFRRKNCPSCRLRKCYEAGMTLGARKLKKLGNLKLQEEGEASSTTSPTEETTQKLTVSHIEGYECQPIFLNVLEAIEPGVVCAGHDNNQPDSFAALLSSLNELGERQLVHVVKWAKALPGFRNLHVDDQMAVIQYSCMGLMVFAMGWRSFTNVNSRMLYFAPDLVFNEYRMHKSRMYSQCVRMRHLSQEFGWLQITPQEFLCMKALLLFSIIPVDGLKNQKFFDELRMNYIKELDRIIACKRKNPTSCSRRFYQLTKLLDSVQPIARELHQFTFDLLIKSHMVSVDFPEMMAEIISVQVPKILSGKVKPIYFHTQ", "assay_type": "cell-based"}, "VCaP cells": {"system": "VCaP cells", "test": "VCaP cell proliferation", "assay_type": "cell-based, human", "conditions": "1 and 10 μM, media containing FBS"}}, "data": [{"molecule": "CNC(=O)c1ccc(N2C(=S)N(c3ccc(C#N)c(C(F)(F)F)c3)C(=O)C23CCC3)cc1F", "note": "[RD162]", "values": [{"measurement": "binding to estrogen receptor", "setting": "estrogen receptor", "result": "little to no binding"}, {"measurement": "effects on AR protein expression", "setting": "AR", "result": "no obvious changes"}, {"measurement": "Growth suppression in AR-negative DU145 cells", "setting": "[1]", "result": "not observed"}, {"measurement": "binding to glucocorticoid receptor", "setting": "glucocorticoid receptor", "result": "little to no binding"}, {"measurement": "cellular proliferation by Ki-67 staining", "setting": "LNCaP/AR xenografts", "result": "substantially reduced"}, {"measurement": "Transcriptional activity of mutant AR (W741C)", "setting": "[2]", "result": "inhibited the transcriptional activity"}, {"measurement": "Growth of VCaP cells", "setting": "VCaP cells", "result": "suppressed growth"}]}]}
